Source: PubChem BioAssay (NCI)
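Values below derive from 48-hour exposures of cells grown in 96-well plates, with endpoints linearly interpolated between the two concentrations bracketing the appropriate inhibition level. Here, GI50 denotes the concentration required for 50% inhibition of growth. Definition used: TGI = concentration required for complete inhibition of growth.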

Tests used:
Assay in all cases: DTP human tumour cell line panel, 48 h
[1] = test system: MCF7 breast
[2] = test system: SF-295 CNS
[3] = test system: TK-10 renal
[4] = test system: HOP-62 NSCLC
[5] = test system: HL-60(TB) leukemia
[6] = test system: NCI-H226 lung
[7] = test system: DU-145 prostate
[8] = test system: NCI-H460 lung
[9] = test system: A498 renal
[10] = test system: LOX IMVI melanoma
[11] = test system: OVCAR-3 ovarian
[12] = test system: RPMI-8226 leukemia
[13] = test system: SK-OV-3 ovarian
[14] = test system: COLO 205 colon
[15] = test system: A549 NSCLC
[16] = test system: CAKI-1 renal
[17] = test system: ACHN renal
[18] = test system: PC-3 prostate
[19] = test system: M14 melanoma
[20] = test system: OVCAR-8 ovarian
[21] = test system: HOP-92 NSCLC
[22] = test system: SNB-75 CNS
[23] = test system: MALME-3M melanoma
[24] = test system: RXF 393 renal
[25] = test system: HS 578T breast
[26] = test system: HT29 colon
[27] = test system: BT-549 breast
[28] = test system: KM12 colon
[29] = test system: MDA-MB-435
[30] = test system: CCRF-CEM leukemia
[31] = test system: T-47D breast
[32] = test system: MOLT-4 leukemia
[33] = test system: SK-MEL-28 melanoma
[34] = test system: 786-0 renal
[35] = test system: K-562 leukemia
[36] = test system: SN12C renal
[37] = test system: U251 CNS
[38] = test system: NCI-H522 lung
[39] = test system: UACC-257 melanoma
[40] = test system: NCI/ADR-RES ovarian
[41] = test system: SF-268 CNS
[42] = test system: SW-620 colon
[43] = test system: SK-MEL-5 melanoma
[44] = test system: SK-MEL-2 melanoma
[45] = test system: UO-31 renal
[46] = test system: HCT-15 colon
[47] = test system: NCI-H23 lung
[48] = test system: OVCAR-5 ovarian
[49] = test system: EKVX NSCLC
[50] = test system: IGROV1 ovarian
[51] = test system: MDA-MB-231 breast
[52] = test system: OVCAR-4 ovarian
[53] = test system: SNB-19 CNS
[54] = test system: HCC-2998 colon
[55] = test system: HCT-116 colon
[56] = test system: UACC-62 melanoma

Structure (SMILES): CCCCCCCCCCCC(c1ccccc1)[N+](C)(C)C (stereo unspecified)
- GI50 [1]: 1.44 µM
- TGI [1]: 3.19 µM
- GI50 [2]: 2.32 µM
- TGI [2]: 8.9 µM
- GI50 [3]: 0.788 µM
- TGI [3]: 2.49 µM
- GI50 [4]: 1.52 µM
- TGI [4]: 3.07 µM
- GI50 [5]: 0.291 µM
- TGI [5]: 1.47 µM
- GI50 [6]: 1.97 µM
- TGI [6]: 7.22 µM
- GI50 [7]: 1.56 µM
- TGI [7]: 7.51 µM
- GI50 [8]: 1.28 µM
- TGI [8]: 3.2 µM
- GI50 [9]: 1.99 µM
- TGI [9]: 7.24 µM
- GI50 [10]: 0.425 µM
- TGI [10]: 2.5 µM
- GI50 [11]: 0.815 µM
- TGI [11]: 2.35 µM
- GI50 [12]: 0.462 µM
- TGI [12]: 1.92 µM
- GI50 [13]: 1.86 µM
- TGI [13]: 6.09 µM
- GI50 [14]: 0.825 µM
- TGI [14]: 2.2 µM
- GI50 [15]: 1.46 µM
- TGI [15]: 3.97 µM
- GI50 [16]: 9.98 µM
- TGI [16]: 26 µM
- GI50 [17]: 4.93 µM
- TGI [17]: 26.1 µM
- GI50 [18]: 0.393 µM
- TGI [18]: 2.52 µM
- GI50 [19]: 1.37 µM
- TGI [19]: 4.25 µM
- GI50 [20]: 1.18 µM
- TGI [20]: 3.06 µM
- GI50 [21]: 1.06 µM
- TGI [21]: 2.86 µM
- GI50 [22]: 1.15 µM
- TGI [22]: 2.55 µM
- GI50 [23]: 1.29 µM
- TGI [23]: 2.91 µM
- GI50 [24]: 0.451 µM
- TGI [24]: 2.26 µM
- GI50 [25]: 1.16 µM
- TGI [25]: 3.28 µM
- GI50 [26]: 0.296 µM
- TGI [26]: 2.45 µM
- GI50 [27]: 1.31 µM
- TGI [27]: 2.95 µM
- GI50 [28]: 0.511 µM
- TGI [28]: 1.78 µM
- GI50 [29]: 1.35 µM
- TGI [29]: 3.05 µM
- GI50 [30]: 1.41 µM
- TGI [30]: 4.12 µM
- GI50 [31]: 1.9 µM
- TGI [31]: 9.79 µM
- GI50 [32]: 1.36 µM
- TGI [32]: 4.02 µM
- GI50 [33]: 1.49 µM
- TGI [33]: 3.31 µM
- GI50 [34]: 1.63 µM
- TGI [34]: 3.55 µM
- GI50 [35]: 0.673 µM
- TGI [35]: 4.09 µM
- GI50 [36]: 1.59 µM
- TGI [36]: 3.77 µM
- GI50 [37]: 1.14 µM
- TGI [37]: 2.49 µM
- GI50 [38]: 0.294 µM
- TGI [38]: 1.97 µM
- GI50 [39]: 1.37 µM
- TGI [39]: 2.98 µM
- GI50 [40]: > 100 µM
- TGI [40]: > 100 µM
- GI50 [41]: 1.26 µM
- TGI [41]: 2.61 µM
- GI50 [42]: 1.5 µM
- TGI [42]: 3.86 µM
- GI50 [43]: 0.874 µM
- TGI [43]: 2.11 µM
- GI50 [44]: 1.51 µM
- TGI [44]: 3.06 µM
- GI50 [45]: 10.7 µM
- TGI [45]: 26.9 µM
- GI50 [46]: 14.1 µM
- TGI [46]: 37 µM
- GI50 [47]: 1 µM
- TGI [47]: 5.86 µM
- GI50 [48]: 0.998 µM
- TGI [48]: 4.97 µM
- GI50 [49]: 1.45 µM
- TGI [49]: 4.63 µM
- GI50 [50]: 0.417 µM
- TGI [50]: 1.79 µM
- GI50 [51]: 1.68 µM
- TGI [51]: 4.25 µM
- GI50 [52]: 1.13 µM
- TGI [52]: 4.05 µM

Structure (SMILES): [Cu].c1ccc2c(c1)C1=NC2=NC2=NC(=NC3=NC(=NC4=NC(=N1)c1ccccc14)c1ccccc13)c1ccccc12
- GI50 [1]: > 100 µM
- TGI [1]: > 100 µM
- GI50 [2]: > 100 µM
- TGI [2]: > 100 µM
- GI50 [3]: > 100 µM
- TGI [3]: > 100 µM
- GI50 [4]: > 100 µM
- TGI [4]: > 100 µM
- GI50 [7]: > 100 µM
- TGI [7]: > 100 µM
- GI50 [8]: > 100 µM
- TGI [8]: > 100 µM
- GI50 [9]: > 100 µM
- TGI [9]: > 100 µM
- GI50 [10]: > 100 µM
- TGI [10]: > 100 µM
- GI50 [11]: > 100 µM
- TGI [11]: > 100 µM
- GI50 [12]: > 100 µM
- TGI [12]: > 100 µM
- GI50 [13]: > 100 µM
- TGI [13]: > 100 µM
- GI50 [15]: > 100 µM
- TGI [15]: > 100 µM
- GI50 [53]: > 100 µM
- TGI [53]: > 100 µM
- GI50 [16]: > 100 µM
- TGI [16]: > 100 µM
- GI50 [17]: > 100 µM
- TGI [17]: > 100 µM
- GI50 [18]: > 100 µM
- TGI [18]: > 100 µM
- GI50 [19]: > 100 µM
- TGI [19]: > 100 µM
- GI50 [20]: > 100 µM
- TGI [20]: > 100 µM
- GI50 [21]: > 100 µM
- TGI [21]: > 100 µM
- GI50 [22]: > 100 µM
- TGI [22]: > 100 µM
- GI50 [23]: > 100 µM
- TGI [23]: > 100 µM
- GI50 [24]: > 100 µM
- TGI [24]: > 100 µM
- GI50 [25]: > 100 µM
- TGI [25]: > 100 µM
- GI50 [26]: > 100 µM
- TGI [26]: > 100 µM
- GI50 [27]: > 100 µM
- TGI [27]: > 100 µM
- GI50 [28]: > 100 µM
- TGI [28]: > 100 µM
- GI50 [29]: > 100 µM
- TGI [29]: > 100 µM
- GI50 [54]: > 100 µM
- TGI [54]: > 100 µM
- GI50 [31]: > 100 µM
- TGI [31]: > 100 µM
- GI50 [33]: > 100 µM
- TGI [33]: > 100 µM
- GI50 [34]: > 100 µM
- TGI [34]: > 100 µM
- GI50 [35]: > 100 µM
- TGI [35]: > 100 µM
- GI50 [36]: > 100 µM
- TGI [36]: > 100 µM
- GI50 [37]: > 100 µM
- TGI [37]: > 100 µM
- GI50 [38]: > 100 µM
- TGI [38]: > 100 µM
- GI50 [39]: > 100 µM
- TGI [39]: > 100 µM
- GI50 [40]: > 100 µM
- TGI [40]: > 100 µM
- GI50 [41]: > 100 µM
- TGI [41]: > 100 µM
- GI50 [42]: > 100 µM
- TGI [42]: > 100 µM
- GI50 [43]: > 100 µM
- TGI [43]: > 100 µM
- GI50 [44]: > 100 µM
- TGI [44]: > 100 µM
- GI50 [45]: > 100 µM
- TGI [45]: > 100 µM
- GI50 [46]: > 100 µM
- TGI [46]: > 100 µM
- GI50 [47]: > 100 µM
- TGI [47]: > 100 µM
- GI50 [48]: > 100 µM
- TGI [48]: > 100 µM
- GI50 [55]: > 100 µM
- TGI [55]: > 100 µM
- GI50 [49]: > 100 µM
- TGI [49]: > 100 µM
- GI50 [50]: > 100 µM
- TGI [50]: > 100 µM
- GI50 [51]: > 100 µM
- TGI [51]: > 100 µM
- GI50 [52]: > 100 µM
- TGI [52]: > 100 µM
- GI50 [56]: > 100 µM
- TGI [56]: > 100 µM
